According to publication PMC11122421 (Marine Drugs, 2024):
Values joined by “and” are separate entries in the source; they are usually repeats but may differ in a detail not shown here. Equal entries are not always repeated. Where a SMILES comes first, the peptide text is derived from it. Bridges are numbered along the chain shown (N, C = ends). The star is where a group is joined. X2 = CN(C)c1ccc2c(-c3cc(C(=O)*)ccc3C(=O)[O-])c3ccc(=[N+](C)C)cc-3oc2c1; X1 = C[N+]1=C(/C=C/C=C2/N(CCCCCC(=O)*)c3ccccc3C2(C)C)C(C)(C)c2ccccc21; BODIPY(FL) = CC1=CC(C)=[N+]2C1=Cc1ccc(CCC(=O)*)n1[B-]2(F)F

Key:
rat α7 nAChRs = target: T1, rat α7 nAChRs (Rattus norvegicus, UniProt Q05941); experiment: cell-based; type: cell-based
T1 construct: expressed in transfected cells; host or cells: Xenopus laevis oocytes injected with cRNA; plasmids from J. Michael McIntosh (University of Utah)
T1 sequence (Q05941 23-502): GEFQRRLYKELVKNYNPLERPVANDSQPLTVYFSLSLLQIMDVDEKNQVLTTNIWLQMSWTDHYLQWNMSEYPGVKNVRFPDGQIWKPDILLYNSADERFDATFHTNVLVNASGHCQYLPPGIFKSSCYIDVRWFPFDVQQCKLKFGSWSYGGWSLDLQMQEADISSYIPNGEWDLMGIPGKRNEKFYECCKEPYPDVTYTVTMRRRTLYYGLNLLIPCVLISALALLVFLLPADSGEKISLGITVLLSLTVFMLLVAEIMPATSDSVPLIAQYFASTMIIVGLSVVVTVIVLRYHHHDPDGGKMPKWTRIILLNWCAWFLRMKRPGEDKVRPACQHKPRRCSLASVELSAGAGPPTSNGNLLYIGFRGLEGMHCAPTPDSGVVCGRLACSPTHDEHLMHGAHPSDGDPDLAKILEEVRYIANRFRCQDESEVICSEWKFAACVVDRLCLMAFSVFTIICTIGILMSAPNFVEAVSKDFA

rat α3β2 nAChR = target: T2, rat α3β2 nAChR (Rattus norvegicus, UniProt P04757+P12390); experiment: cell-based
T2 construct: expressed in transfected cells; host or cells: Xenopus laevis oocytes injected with cRNA; plasmids from J. Michael McIntosh (University of Utah)
T2 sequence (P04757 26-499 limits assumed): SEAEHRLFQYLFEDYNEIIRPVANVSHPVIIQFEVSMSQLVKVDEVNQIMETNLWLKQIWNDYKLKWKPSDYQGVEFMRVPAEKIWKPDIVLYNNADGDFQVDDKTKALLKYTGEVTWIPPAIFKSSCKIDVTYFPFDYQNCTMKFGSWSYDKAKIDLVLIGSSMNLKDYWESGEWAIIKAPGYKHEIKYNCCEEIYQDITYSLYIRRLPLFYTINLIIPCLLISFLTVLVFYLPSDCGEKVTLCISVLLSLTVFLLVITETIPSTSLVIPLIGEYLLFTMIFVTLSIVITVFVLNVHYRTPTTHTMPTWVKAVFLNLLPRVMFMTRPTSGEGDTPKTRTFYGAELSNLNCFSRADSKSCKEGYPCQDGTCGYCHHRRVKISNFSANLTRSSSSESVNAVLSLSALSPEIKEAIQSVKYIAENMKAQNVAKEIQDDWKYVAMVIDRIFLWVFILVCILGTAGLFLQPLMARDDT
T2 sequence (P12390 25-500 limits assumed): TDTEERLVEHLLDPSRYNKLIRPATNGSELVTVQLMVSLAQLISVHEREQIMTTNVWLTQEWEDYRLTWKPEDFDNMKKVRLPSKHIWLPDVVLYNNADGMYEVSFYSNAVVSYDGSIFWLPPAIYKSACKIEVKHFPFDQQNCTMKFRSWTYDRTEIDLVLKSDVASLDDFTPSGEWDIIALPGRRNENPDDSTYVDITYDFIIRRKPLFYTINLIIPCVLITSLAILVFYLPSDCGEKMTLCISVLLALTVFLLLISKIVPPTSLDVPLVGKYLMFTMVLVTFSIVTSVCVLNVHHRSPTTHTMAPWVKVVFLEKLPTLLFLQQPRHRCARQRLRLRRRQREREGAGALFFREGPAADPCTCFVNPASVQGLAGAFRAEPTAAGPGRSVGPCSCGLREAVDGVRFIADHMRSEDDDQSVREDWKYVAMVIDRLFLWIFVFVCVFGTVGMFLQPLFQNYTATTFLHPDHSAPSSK

[1] = not given; remark: listed apart in the source
rat α6/α3β4 nAChRs = target: T3, rat α6/α3β4 nAChRs (Rattus norvegicus, UniProt P04757+P12392+P43143); type: cell-based
T3 construct: expressed in transfected cells; host or cells: Xenopus laevis oocytes injected with cRNA; plasmids from J. Michael McIntosh (University of Utah)
T3 sequence (P43143+P04757 fused with the stated changes): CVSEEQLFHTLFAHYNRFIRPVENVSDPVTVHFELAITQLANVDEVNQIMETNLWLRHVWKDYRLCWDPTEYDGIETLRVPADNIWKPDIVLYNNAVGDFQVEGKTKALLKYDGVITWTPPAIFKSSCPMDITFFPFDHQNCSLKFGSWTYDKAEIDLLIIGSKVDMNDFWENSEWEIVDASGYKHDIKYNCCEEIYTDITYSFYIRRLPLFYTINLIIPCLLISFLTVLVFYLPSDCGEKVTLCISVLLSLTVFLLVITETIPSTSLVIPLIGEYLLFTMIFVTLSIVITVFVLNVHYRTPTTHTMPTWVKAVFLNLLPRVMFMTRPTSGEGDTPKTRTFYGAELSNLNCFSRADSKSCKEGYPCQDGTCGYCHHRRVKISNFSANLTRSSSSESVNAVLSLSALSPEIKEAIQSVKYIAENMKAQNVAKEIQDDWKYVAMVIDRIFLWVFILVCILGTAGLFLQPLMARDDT
T3 sequence (P12392 21-495): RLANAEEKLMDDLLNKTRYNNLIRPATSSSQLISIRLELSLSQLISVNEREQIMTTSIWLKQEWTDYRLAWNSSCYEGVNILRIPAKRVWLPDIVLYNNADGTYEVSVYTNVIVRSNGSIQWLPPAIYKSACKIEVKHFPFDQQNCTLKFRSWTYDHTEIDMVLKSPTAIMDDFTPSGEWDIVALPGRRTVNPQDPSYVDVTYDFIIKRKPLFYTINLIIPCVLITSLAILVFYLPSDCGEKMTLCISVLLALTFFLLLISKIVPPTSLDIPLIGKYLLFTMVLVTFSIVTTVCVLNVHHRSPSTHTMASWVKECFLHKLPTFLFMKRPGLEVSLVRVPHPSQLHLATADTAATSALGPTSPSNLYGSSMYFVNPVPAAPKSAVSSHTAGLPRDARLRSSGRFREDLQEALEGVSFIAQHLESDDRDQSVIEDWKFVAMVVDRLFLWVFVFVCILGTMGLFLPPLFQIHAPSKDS

[2] = target: T4, α7 nAChRs in rat brain slices (Rattus norvegicus, UniProt Q05941)
T4 construct: from tissue; host or cells: frozen brain slices of ten-week-old rats (hippocampus, striatum, cortex, cerebellum)
T4 sequence (Q05941 23-502): as the sequence (Q05941 23-502) above

CC1=CC(C)=[N+]2C1=Cc1ccc(CCC(=O)NCC(=O)N[C@H]3CSSC[C@@H]4NC(=O)[C@@H]5CCCN5C(=O)[C@@H]5CCCN5C(=O)[C@H](CC(N)=O)NC(=O)[C@H](CO)NC(=O)[C@H](CSSC[C@@H](C(N)=O)NC(=O)[C@H](Cc5c[nH]cn5)NC(=O)[C@H](CCC(=O)O)NC(=O)[C@H](Cc5c[nH]cn5)NC(=O)[C@H](C)NC4=O)NC3=O)n1[B-]2(F)F [LvIB-B] ({BODIPY(FL)}-GCCSNPPCAHEHC-NH2; disulfide 2-8, 3-13)
IC50 (rat α7 nAChRs): 187 nM
inhibition rate of ACh-evoked current (rat α7 nAChRs): 96 ± 0.11%
inhibition rate (rat α3β2 nAChR): 64 ± 4%
IC50 (rat α3β2 nAChR): 2550 nM and 10900 nM
emission wavelength (Em): 510 nm
excitation wavelength (Ex) [1]: 505 nm
inhibition rate (rat α6/α3β4 nAChRs): 0 ± 2%

C[C@@H]1NC(=O)[C@@H]2CSSC[C@H](NC(=O)CNC(=O)CCCCCN3/C(=C/C=C/C4=[N+](C)c5ccccc5C4(C)C)C(C)(C)c4ccccc43)C(=O)N[C@@H](CSSC[C@@H](C(N)=O)NC(=O)[C@H](Cc3c[nH]cn3)NC(=O)[C@H](CCC(=O)O)NC(=O)[C@H](Cc3c[nH]cn3)NC1=O)C(=O)N[C@@H](CO)C(=O)N[C@@H](CC(N)=O)C(=O)N1CCC[C@H]1C(=O)N1CCC[C@H]1C(=O)N2 [LvIB-C] (X1-GCCSNPPCAHEHC-NH2; disulfide 2-8, 3-13)
Hill Slope (rat α7 nAChRs): 1.39 (1.05–1.72)
IC50 (rat α7 nAChRs): 298 nM
inhibition rate of ACh-evoked current (rat α7 nAChRs): 94 ± 0.20%
time to ~90% current restoration after block (recovery/washout) (rat α7 nAChRs): ≤ 14 min
inhibition rate (rat α3β2 nAChR): 50 ± 2%
IC50 (rat α3β2 nAChR): 10900 nM and 2550 nM
emission wavelength (Em): 570 nm
fluorescence labelling of brain regions [2]: distinct fluorescence distribution in the hippocampus, striatum, and cortex
excitation wavelength (Ex) [1]: 550 nm
inhibition rate (rat α6/α3β4 nAChRs): 10 ± 0.3%

C[C@@H]1NC(=O)[C@@H]2CSSC[C@H](NC(=O)CNC(=O)c3ccc(C(=O)[O-])c(-c4c5ccc(=[N+](C)C)cc-5oc5cc(N(C)C)ccc45)c3)C(=O)N[C@@H](CSSC[C@@H](C(N)=O)NC(=O)[C@H](Cc3c[nH]cn3)NC(=O)[C@H](CCC(=O)O)NC(=O)[C@H](Cc3c[nH]cn3)NC1=O)C(=O)N[C@@H](CO)C(=O)N[C@@H](CC(N)=O)C(=O)N1CCC[C@H]1C(=O)N1CCC[C@H]1C(=O)N2 [LvIB-R] (X2-GCCSNPPCAHEHC-NH2; disulfide 2-8, 3-13)
Hill Slope (rat α7 nAChRs): 0.89 (0.67–1.14)
IC50 (rat α7 nAChRs): 643 nM
inhibition rate of ACh-evoked current (rat α7 nAChRs): 87 ± 0.24%
time to ~90% current restoration after block (recovery/washout) (rat α7 nAChRs): ≤ 14 min
emission wavelength (Em): 580 nm
fluorescence labelling of brain regions [2]: distinct fluorescence distribution in the hippocampus, striatum, and cortex
excitation wavelength (Ex) [1]: 555 nm
